Literature values, collected in US11730740B2, “Laureth-4 containing topical formulations” (ARCUTIS BIOTHERAPEUTICS, INC., priority 2020, dated 2023).

How the values were obtained:
JAK 1 = JAK 1 (Homo sapiens, UniProt P23458); details: statement in words
[1] = 10% adjuvant in propylene glycol; infinite dosing 278 μl/cm^2; PG alone control 1.6±0.4
[2] = 10% w/w surfactant in white petrolatum with 10% salicylic acid and 10% DMSO; 5.0 grams on 6.4×12.7 cm^2 skin; 8 hr

JAK 1, sequence (P23458 whole entry, species assumed): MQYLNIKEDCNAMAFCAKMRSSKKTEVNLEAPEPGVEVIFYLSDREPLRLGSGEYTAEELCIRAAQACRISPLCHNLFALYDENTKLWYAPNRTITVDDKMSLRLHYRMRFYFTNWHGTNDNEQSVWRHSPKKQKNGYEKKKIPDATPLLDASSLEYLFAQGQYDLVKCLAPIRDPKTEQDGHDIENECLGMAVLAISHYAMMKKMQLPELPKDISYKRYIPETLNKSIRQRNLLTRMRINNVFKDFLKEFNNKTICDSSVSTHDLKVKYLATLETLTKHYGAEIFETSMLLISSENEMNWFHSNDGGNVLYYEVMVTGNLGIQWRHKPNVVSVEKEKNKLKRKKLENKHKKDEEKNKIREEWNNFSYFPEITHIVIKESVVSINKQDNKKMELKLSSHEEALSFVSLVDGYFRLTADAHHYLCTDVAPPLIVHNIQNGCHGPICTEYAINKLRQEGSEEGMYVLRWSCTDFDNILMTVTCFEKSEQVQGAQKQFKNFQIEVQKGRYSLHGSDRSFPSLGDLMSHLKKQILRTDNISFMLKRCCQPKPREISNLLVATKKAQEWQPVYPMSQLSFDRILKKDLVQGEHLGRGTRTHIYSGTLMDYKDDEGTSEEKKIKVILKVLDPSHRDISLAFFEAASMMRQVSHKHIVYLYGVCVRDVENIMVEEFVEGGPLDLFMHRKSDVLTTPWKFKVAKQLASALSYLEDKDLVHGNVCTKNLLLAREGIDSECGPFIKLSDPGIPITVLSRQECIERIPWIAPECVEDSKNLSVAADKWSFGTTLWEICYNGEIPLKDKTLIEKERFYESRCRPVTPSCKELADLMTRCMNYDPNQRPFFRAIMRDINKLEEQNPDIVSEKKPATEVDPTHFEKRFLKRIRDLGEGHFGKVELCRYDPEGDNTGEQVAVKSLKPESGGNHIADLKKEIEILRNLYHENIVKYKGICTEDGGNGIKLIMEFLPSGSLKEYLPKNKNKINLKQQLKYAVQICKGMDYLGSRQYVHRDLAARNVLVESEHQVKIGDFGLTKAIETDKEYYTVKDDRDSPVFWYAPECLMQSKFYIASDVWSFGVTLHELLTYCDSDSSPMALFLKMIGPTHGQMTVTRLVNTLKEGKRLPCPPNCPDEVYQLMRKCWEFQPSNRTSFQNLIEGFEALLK

naloxone flux [1] [μg/cm^2-hr]	Compound	further results
	CCC[C@@H]1C[C@@H](C(=O)N[C@@H]([C@H]2O[C@H](SC)[C@H](OP(=O)(O)O)[C@@H](O)[C@H]2O)[C@H](C)Cl)N(C)C1 [Clindamycin phosphate]	solubility in water (without the addition of laureth-4): readily soluble
	COc1nsc(NC(=O)N2C[C@H]3C[C@H](N(C)c4ncnc5[nH]ccc45)C[C@H]3C2)n1 [SHR0302, (3 aR,5 S,6aS)—N-(3-methoxyl-1,2,4-thiadiazol-5-yl)-5-(methyl(7H-pyrrolo[2,3-d]pyrimidin-4-yl)amino)hexahydrocyclopenta[c]pyrrole-2(1H)-carboxamide]	inhibition of JAK 1 (JAK 1): potent; selectivity for JAK1 over JAK2 (JAK 1): high
187.9±67.5	CCCCCCCCCC(=O)O [capric acid]	
34.5±8.3	CCCCCCCCCCCCOCCOCCOCCOCCO [laureth-4, tetraethylene glycol monododecyl ether]	percutaneous absorption of salicylic acid [2]: increased significantly
235.2	CCCCCCCCCCCC(=O)O [lauric acid]	
45.8	CCCCCCCCCCCCO [lauryl alcohol]	
103.0	CC/C=C\C/C=C\C/C=C\CCCCCCCC(=O)O [linolenic acid 18:2, linolenic acid]	
201.9±65.4	CCCCCCCCC(=O)O [pelargonic acid]	
	CC1=C(/C=C/C(C)=C/C=C/C(C)=C/C(=O)O)C(C)(C)CCC1 [tretinoin]	solubility of tretinoin in VELTIN Gel (with laureth-4 (3%) and propylene glycol): 0.025%
	polyoxyethylene 2 oleyl ether	percutaneous absorption of salicylic acid [2]: increased significantly
	sorbitan monopalmitate	percutaneous absorption of salicylic acid [2]: increased significantly
	sorbitan trioleate	percutaneous absorption of salicylic acid [2]: increased significantly

Compound	naloxone flux [1] [μg/cm^2-hr]	further results
CC/C=C\C/C=C\C/C=C\CCCCCCCCO [linolenyl alcohol]	116.3	
propylene glycol laurate	43.8±5.5	
